Data published in the NIST ThermoML archive (doi:10.1021/acs.jced.7b01125).

Test: xn = mol fraction of the nth substance listed
Settings: Gas, Buoyancy - hydrostatic balance with magnetic suspension - one sinker

[HH] [hydrogen] + C
Settings | mass density [kg/m3]
324.96 K, 10000 kPa, x2 = 0.9 | 58.331
324.96 K, 11000 kPa, x2 = 0.4997 | 36.202
324.96 K, 11001 kPa, x2 = 0.9 | 64.438
324.96 K, 12002 kPa, x2 = 0.4997 | 39.381
324.96 K, 12003 kPa, x2 = 0.9 | 70.531
324.96 K, 12999 kPa, x2 = 0.4997 | 42.522
324.96 K, 13002 kPa, x2 = 0.9 | 76.592
324.96 K, 14000 kPa, x2 = 0.4997 | 45.642
324.96 K, 14001 kPa, x2 = 0.9499 | 88.324
324.96 K, 14003 kPa, x2 = 0.9 | 82.625
324.96 K, 14998 kPa, x2 = 0.4997 | 48.72
324.96 K, 15000 kPa, x2 = 0.9 | 88.578
324.96 K, 15003 kPa, x2 = 0.9499 | 94.801
324.96 K, 15999 kPa, x2 = 0.4997 | 51.775
324.96 K, 16001 kPa, x2 = 0.9 | 94.491
324.96 K, 16003 kPa, x2 = 0.9499 | 101.187
324.96 K, 16999 kPa, x2 = 0.4997 | 54.795
324.96 K, 16999 kPa, x2 = 0.9 | 100.301
324.96 K, 17994 kPa, x2 = 0.4997 | 57.761
324.96 K, 18000 kPa, x2 = 0.9499 | 113.635
324.96 K, 18006 kPa, x2 = 0.9 | 106.065
324.96 K, 19001 kPa, x2 = 0.9 | 111.659
324.96 K, 19002 kPa, x2 = 0.4997 | 60.728
324.96 K, 19004 kPa, x2 = 0.9499 | 119.703
324.96 K, 19631 kPa, x2 = 0.4997 | 62.562
324.96 K, 19902 kPa, x2 = 0.9 | 116.626
324.96 K, 19924 kPa, x2 = 0.9499 | 125.148
324.97 K, 999 kPa, x2 = 0.9499 | 5.733
324.97 K, 1999 kPa, x2 = 0.9499 | 11.594
324.97 K, 2985 kPa, x2 = 0.9499 | 17.488
324.97 K, 3998 kPa, x2 = 0.9499 | 23.665
324.97 K, 4999 kPa, x2 = 0.9499 | 29.867
324.97 K, 5999 kPa, x2 = 0.9499 | 36.165
324.97 K, 6999 kPa, x2 = 0.9499 | 42.544
324.97 K, 7999 kPa, x2 = 0.9499 | 49.004
324.97 K, 10000 kPa, x2 = 0.9499 | 62.076
324.97 K, 11004 kPa, x2 = 0.9499 | 68.681
324.97 K, 12002 kPa, x2 = 0.9499 | 75.249
324.97 K, 13002 kPa, x2 = 0.9499 | 81.811
324.97 K, 17001 kPa, x2 = 0.9499 | 107.464
349.95 K, 999 kPa, x2 = 0.9 | 5.061
349.95 K, 999 kPa, x2 = 0.9499 | 5.309
349.95 K, 1003 kPa, x2 = 0.4997 | 3.109
349.95 K, 1999 kPa, x2 = 0.9 | 10.188
349.95 K, 1999 kPa, x2 = 0.9499 | 10.702
349.95 K, 2004 kPa, x2 = 0.4997 | 6.207
349.95 K, 2985 kPa, x2 = 0.9 | 15.301
349.95 K, 2999 kPa, x2 = 0.9499 | 16.173
349.95 K, 3002 kPa, x2 = 0.4997 | 9.284
349.95 K, 3999 kPa, x2 = 0.9 | 20.614
349.95 K, 4000 kPa, x2 = 0.9499 | 21.712
349.95 K, 4004 kPa, x2 = 0.4997 | 12.364
349.95 K, 4999 kPa, x2 = 0.9 | 25.902
349.95 K, 4999 kPa, x2 = 0.9499 | 27.309
349.95 K, 5003 kPa, x2 = 0.4997 | 15.42
349.95 K, 5998 kPa, x2 = 0.9 | 31.226
349.95 K, 5998 kPa, x2 = 0.9499 | 32.957
349.95 K, 6002 kPa, x2 = 0.4997 | 18.469
349.95 K, 6998 kPa, x2 = 0.9 | 36.584
349.95 K, 7000 kPa, x2 = 0.9499 | 38.671
349.95 K, 7001 kPa, x2 = 0.4997 | 21.49
349.95 K, 7998 kPa, x2 = 0.9499 | 44.399
349.95 K, 7999 kPa, x2 = 0.9 | 41.97
349.95 K, 8001 kPa, x2 = 0.4997 | 24.491
349.95 K, 8997 kPa, x2 = 0.9 | 47.361
349.95 K, 8997 kPa, x2 = 0.9499 | 50.163
349.95 K, 9000 kPa, x2 = 0.4997 | 27.473
349.95 K, 9996 kPa, x2 = 0.9499 | 55.938
349.95 K, 9999 kPa, x2 = 0.4997 | 30.433
349.95 K, 10000 kPa, x2 = 0.9 | 52.782
349.95 K, 10999 kPa, x2 = 0.9499 | 61.741
349.95 K, 11000 kPa, x2 = 0.9 | 58.181
349.95 K, 11001 kPa, x2 = 0.4997 | 33.381
349.95 K, 11995 kPa, x2 = 0.4997 | 36.281
349.95 K, 11997 kPa, x2 = 0.9499 | 67.507
349.95 K, 12003 kPa, x2 = 0.9 | 63.582
349.95 K, 12996 kPa, x2 = 0.4997 | 39.178
349.95 K, 12998 kPa, x2 = 0.9499 | 73.267
349.95 K, 13000 kPa, x2 = 0.9 | 68.93
349.95 K, 13993 kPa, x2 = 0.4997 | 42.035
349.95 K, 13994 kPa, x2 = 0.9 | 74.229
349.95 K, 13998 kPa, x2 = 0.9499 | 78.993
349.95 K, 14997 kPa, x2 = 0.9499 | 84.669
349.95 K, 14998 kPa, x2 = 0.9 | 79.534
349.95 K, 15001 kPa, x2 = 0.4997 | 44.896
349.95 K, 15997 kPa, x2 = 0.9 | 84.764
349.95 K, 15998 kPa, x2 = 0.4997 | 47.697
349.95 K, 15998 kPa, x2 = 0.9499 | 90.284
349.95 K, 16997 kPa, x2 = 0.4997 | 50.454
349.95 K, 16998 kPa, x2 = 0.9499 | 95.842
349.95 K, 17000 kPa, x2 = 0.9 | 89.954
349.95 K, 17989 kPa, x2 = 0.4997 | 53.192
349.95 K, 17998 kPa, x2 = 0.9499 | 101.317
349.95 K, 19002 kPa, x2 = 0.4997 | 55.94
349.95 K, 19002 kPa, x2 = 0.9499 | 106.734
349.95 K, 19350 kPa, x2 = 0.9 | 101.832
349.95 K, 19873 kPa, x2 = 0.9499 | 111.352
349.95 K, 19933 kPa, x2 = 0.4997 | 58.441
